# From patent US20070049564A1 (Wyeth, priority 2005, published 2007)
# Where two headings read alike, the source gives them in different places.
# Key:
# Test in all cases: MIC, broth microdilution
# [1] = test system: E. faecium GC 4556; conditions: Enterococcus faecium
# [2] = test system: S. aureus GC 6466; conditions: Staphylococcus aureus
# [3] = test system: S. pyogenes GC 4563; conditions: Streptococcus pyogenes
# [4] = test system: E. coli GC 2203; conditions: Escherichia coli
# [5] = test system: S. aureus GC 6467; conditions: Staphylococcus aureus
# [6] = test system: S. aureus GC 6335; conditions: Staphylococcus aureus
# [7] = test system: S. typhimurium GC 2172; conditions: Salmonella enterica, TYPHIMURIUM
# [8] = test system: E. coli GC 4560; conditions: Escherichia coli
# [9] = test system: E. coli GC 2234; conditions: Escherichia coli
# [10] = test system: S. agalactiae GC 4564; conditions: Streptococcus agalactiae
# [11] = test system: E. coli GC 1073; conditions: Escherichia coli
# [12] = test system: E. coli GC 2270; conditions: Escherichia coli
# [13] = test system: S. aureus GC 6469; conditions: Staphylococcus aureus
# [14] = test system: E. coli GC 4559; conditions: Escherichia coli
# [15] = test system: E. coli GC 6465; conditions: Escherichia coli
# [16] = test system: E. coli GC 2235; conditions: Escherichia coli
# [17] = test system: E. coli GC 2233; conditions: Escherichia coli
# [18] = test system: E. coli GC 2271; conditions: Escherichia coli
# Experimental: Antimicrobial susceptibility testing. The in vitro activities of the antibiotics are determined by the broth microdilution method as recommended by the National Committee for Clinical Laboratory Standards (NCCLS) (1). Mueller-Hinton II broth (MHBII)(BBL Cockeysville, Md.) is the medium employed in the testing procedures. Microtiter plates containing serial dilutions of each antimicrobial agent are inoculated with each organism to yield the appropriate density (10^5 CFU/ml) in a 100 μl final volume. The plates are incubated for 18-22 hours at 35° C. in ambient air.
# Representative compounds were first incubated in mouse serum for an hour prior to the in vitro testing against a panel of selected gram-positive and gram-negative bacteria strains. All compounds were also pre-incubated in water for an hour prior to testing as control.
# [19] = test system: E. coli GC 3226; conditions: Escherichia coli
# [20] = test system: S. aureus GC 1079; conditions: Staphylococcus aureus
smiles,measurement,setting,value
"CN(C)c1cc(NC(=O)CN(C(=O)OCOC(=O)C2CCCC2)C(C)(C)C)c(O)c2c1C[C@H]1C[C@H]3[C@H](N(C)C)C(O)=C(C(N)=O)C(=O)[C@@]3(O)C(O)=C1C2=O [Example 46, ({[(2-{[(5aR,6aS,7S,10aS)-9-(aminocarbonyl)-4,7-bis(dimethylamino)-1,8,10a,11-tetrahydroxy-10,12-dioxo-5,5a,6,6a,7,10,10a,12-octahydrotetracen-2-yl]amino}-2-oxoethyl)(tert-butyl)amino]carbonyl}oxy)methyl cyclopentanecarboxylate]",MIC,"[1]; GC4556, read-out: MINIMAL INHIBITORY CONCENTRATION MIC, pre-incubated in Human Serum",1 µg/mL
same,MIC,"[1]; GC4556, read-out: MINIMAL INHIBITORY CONCENTRATION MIC, pre-incubated in Mouse Serum",0.5 µg/mL
same,MIC,"[1]; GC4556, read-out: MINIMAL INHIBITORY CONCENTRATION MIC, pre-incubated in Water",1 µg/mL
same,MIC,"[2]; GC6466, read-out: MINIMAL INHIBITORY CONCENTRATION MIC, pre-incubated in Human Serum",0.25 µg/mL
same,MIC,"[2]; GC6466, read-out: MINIMAL INHIBITORY CONCENTRATION MIC, pre-incubated in Mouse Serum",0.25 µg/mL
same,MIC,"[2]; GC6466, read-out: MINIMAL INHIBITORY CONCENTRATION MIC, pre-incubated in Water",0.25 µg/mL
same,MIC,"[3]; GC4563, read-out: MINIMAL INHIBITORY CONCENTRATION MIC, pre-incubated in Human Serum",0.25 µg/mL
same,MIC,"[3]; GC4563, read-out: MINIMAL INHIBITORY CONCENTRATION MIC, pre-incubated in Mouse Serum",0.12 µg/mL
same,MIC,"[3]; GC4563, read-out: MINIMAL INHIBITORY CONCENTRATION MIC, pre-incubated in Water",0.25 µg/mL
same,MIC,"[4]; GC2203, read-out: MINIMAL INHIBITORY CONCENTRATION MIC, pre-incubated in Human Serum",8 µg/mL
same,MIC,"[4]; GC2203, read-out: MINIMAL INHIBITORY CONCENTRATION MIC, pre-incubated in Mouse Serum",0.5 µg/mL
same,MIC,"[4]; GC2203, read-out: MINIMAL INHIBITORY CONCENTRATION MIC, pre-incubated in Water",> 64 µg/mL
same,MIC,"[5]; GC6467, read-out: MINIMAL INHIBITORY CONCENTRATION MIC, pre-incubated in Human Serum",0.5 µg/mL
same,MIC,"[5]; GC6467, read-out: MINIMAL INHIBITORY CONCENTRATION MIC, pre-incubated in Mouse Serum",1 µg/mL
same,MIC,"[5]; GC6467, read-out: MINIMAL INHIBITORY CONCENTRATION MIC, pre-incubated in Water",1 µg/mL
same,MIC,"[6]; GC6335, read-out: MINIMAL INHIBITORY CONCENTRATION MIC, pre-incubated in Human Serum",0.5 µg/mL
same,MIC,"[6]; GC6335, read-out: MINIMAL INHIBITORY CONCENTRATION MIC, pre-incubated in Mouse Serum",1 µg/mL
same,MIC,"[6]; GC6335, read-out: MINIMAL INHIBITORY CONCENTRATION MIC, pre-incubated in Water",1 µg/mL
same,MIC,"[7]; read-out: MINIMAL INHIBITORY CONCENTRATION MIC, pre-incubated in Human Serum",32 µg/mL
same,MIC,"[7]; read-out: MINIMAL INHIBITORY CONCENTRATION MIC, pre-incubated in Mouse Serum",2 µg/mL
same,MIC,"[7]; read-out: MINIMAL INHIBITORY CONCENTRATION MIC, pre-incubated in Water",> 64 µg/mL
same,MIC,"[8]; GC4560, read-out: MINIMAL INHIBITORY CONCENTRATION MIC, pre-incubated in Human Serum",1 µg/mL
same,MIC,"[8]; GC4560, read-out: MINIMAL INHIBITORY CONCENTRATION MIC, pre-incubated in Mouse Serum",0.5 µg/mL
same,MIC,"[8]; GC4560, read-out: MINIMAL INHIBITORY CONCENTRATION MIC, pre-incubated in Water",4 µg/mL
same,MIC,"[9]; GC2234, read-out: MINIMAL INHIBITORY CONCENTRATION MIC, pre-incubated in Human Serum",4 µg/mL
same,MIC,"[9]; GC2234, read-out: MINIMAL INHIBITORY CONCENTRATION MIC, pre-incubated in Mouse Serum",0.5 µg/mL
same,MIC,"[9]; GC2234, read-out: MINIMAL INHIBITORY CONCENTRATION MIC, pre-incubated in Water",64 µg/mL
same,MIC,"[10]; GC4564, read-out: MINIMAL INHIBITORY CONCENTRATION MIC, pre-incubated in Human Serum",0.25 µg/mL
same,MIC,"[10]; GC4564, read-out: MINIMAL INHIBITORY CONCENTRATION MIC, pre-incubated in Mouse Serum",0.25 µg/mL
same,MIC,"[10]; GC4564, read-out: MINIMAL INHIBITORY CONCENTRATION MIC, pre-incubated in Water",0.25 µg/mL
same,MIC,"[11]; GC1073, read-out: MINIMAL INHIBITORY CONCENTRATION MIC, pre-incubated in Human Serum",8 µg/mL
same,MIC,"[11]; GC1073, read-out: MINIMAL INHIBITORY CONCENTRATION MIC, pre-incubated in Mouse Serum",1 µg/mL
same,MIC,"[11]; GC1073, read-out: MINIMAL INHIBITORY CONCENTRATION MIC, pre-incubated in Water",> 64 µg/mL
same,MIC,"[12]; GC2270, read-out: MINIMAL INHIBITORY CONCENTRATION MIC, pre-incubated in Human Serum",4 µg/mL
same,MIC,"[12]; GC2270, read-out: MINIMAL INHIBITORY CONCENTRATION MIC, pre-incubated in Mouse Serum",0.5 µg/mL
same,MIC,"[12]; GC2270, read-out: MINIMAL INHIBITORY CONCENTRATION MIC, pre-incubated in Water",> 64 µg/mL
same,MIC,"[13]; GC6469, read-out: MINIMAL INHIBITORY CONCENTRATION MIC, pre-incubated in Human Serum",0.5 µg/mL
same,MIC,"[13]; GC6469, read-out: MINIMAL INHIBITORY CONCENTRATION MIC, pre-incubated in Mouse Serum",1 µg/mL
same,MIC,"[13]; GC6469, read-out: MINIMAL INHIBITORY CONCENTRATION MIC, pre-incubated in Water",1 µg/mL
same,MIC,"[14]; GC4559, read-out: MINIMAL INHIBITORY CONCENTRATION MIC, pre-incubated in Human Serum",8 µg/mL
same,MIC,"[14]; GC4559, read-out: MINIMAL INHIBITORY CONCENTRATION MIC, pre-incubated in Mouse Serum",1 µg/mL
same,MIC,"[14]; GC4559, read-out: MINIMAL INHIBITORY CONCENTRATION MIC, pre-incubated in Water",> 64 µg/mL
same,MIC,"[15]; GC6465, read-out: MINIMAL INHIBITORY CONCENTRATION MIC, pre-incubated in Human Serum",16 µg/mL
same,MIC,"[15]; GC6465, read-out: MINIMAL INHIBITORY CONCENTRATION MIC, pre-incubated in Mouse Serum",2 µg/mL
same,MIC,"[15]; GC6465, read-out: MINIMAL INHIBITORY CONCENTRATION MIC, pre-incubated in Water",> 64 µg/mL
same,MIC,"[16]; GC2235, read-out: MINIMAL INHIBITORY CONCENTRATION MIC, pre-incubated in Human Serum",4 µg/mL
same,MIC,"[16]; GC2235, read-out: MINIMAL INHIBITORY CONCENTRATION MIC, pre-incubated in Mouse Serum",0.5 µg/mL
same,MIC,"[16]; GC2235, read-out: MINIMAL INHIBITORY CONCENTRATION MIC, pre-incubated in Water",64 µg/mL
same,MIC,"[17]; GC2233, read-out: MINIMAL INHIBITORY CONCENTRATION MIC, pre-incubated in Human Serum",4 µg/mL
same,MIC,"[17]; GC2233, read-out: MINIMAL INHIBITORY CONCENTRATION MIC, pre-incubated in Mouse Serum",0.5 µg/mL
same,MIC,"[17]; GC2233, read-out: MINIMAL INHIBITORY CONCENTRATION MIC, pre-incubated in Water",64 µg/mL
same,MIC,"[18]; GC2271, read-out: MINIMAL INHIBITORY CONCENTRATION MIC, pre-incubated in Human Serum",4 µg/mL
same,MIC,"[18]; GC2271, read-out: MINIMAL INHIBITORY CONCENTRATION MIC, pre-incubated in Mouse Serum",0.5 µg/mL
same,MIC,"[18]; GC2271, read-out: MINIMAL INHIBITORY CONCENTRATION MIC, pre-incubated in Water",64 µg/mL
same,MIC,"[19]; GC3226, read-out: MINIMAL INHIBITORY CONCENTRATION MIC, pre-incubated in Human Serum",16 µg/mL
same,MIC,"[19]; GC3226, read-out: MINIMAL INHIBITORY CONCENTRATION MIC, pre-incubated in Mouse Serum",1 µg/mL
same,MIC,"[19]; GC3226, read-out: MINIMAL INHIBITORY CONCENTRATION MIC, pre-incubated in Water",> 64 µg/mL
same,MIC,"[20]; GC1079, read-out: MINIMAL INHIBITORY CONCENTRATION MIC, pre-incubated in Human Serum",0.5 µg/mL
same,MIC,"[20]; GC1079, read-out: MINIMAL INHIBITORY CONCENTRATION MIC, pre-incubated in Mouse Serum",0.5 µg/mL
same,MIC,"[20]; GC1079, read-out: MINIMAL INHIBITORY CONCENTRATION MIC, pre-incubated in Water",0.5 µg/mL
